Target: T1, renin (Homo sapiens, UniProt P00797)
T1 sequence (P00797 67-406): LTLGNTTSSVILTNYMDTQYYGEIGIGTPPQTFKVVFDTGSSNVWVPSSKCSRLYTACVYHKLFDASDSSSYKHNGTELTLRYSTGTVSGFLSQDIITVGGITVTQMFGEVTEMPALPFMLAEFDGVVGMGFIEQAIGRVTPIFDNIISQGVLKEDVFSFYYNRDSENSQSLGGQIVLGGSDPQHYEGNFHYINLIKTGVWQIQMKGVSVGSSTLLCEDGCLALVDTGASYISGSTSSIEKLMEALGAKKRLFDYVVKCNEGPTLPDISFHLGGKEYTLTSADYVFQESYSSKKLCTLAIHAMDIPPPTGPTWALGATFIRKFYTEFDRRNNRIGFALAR
Assay: in vitro renin inhibitory activity, radioimmunoassay for angiotensin I
Format: biochemical
Conditions: for inhibition at 0.01 µM: at 10^-8 molar concentration of test compound, read-out: In Vitro Activity, percent inhibition at 10^-8; for IC50: renin incubated two hours at 37° with angiotensinogen, values marked * are IC50, read-out: In Vitro Activity, IC50 (molar concentration causing 50% inhibition of renin activity)
Method: The effectiveness of the aforementioned compounds is determined by a test for in vitro renin inhibitory activity. This activity is determined by a standard radioimmunoassay for angiotensin I. In this assay the enzyme, renin, incubated for two hours at 37° in the presence of a substrate, angiotensinogen, generates the product, angiotensin I. Test compounds are added to the incubation mixture. Relative activity is reported as the percent inhibition at the specified molar concentration or as the IC50, which is the molar concentration of test compound causing a 50% inhibition of the renin activity.

Row | Molecule | IC50 | other results
1 | CC(C)CC(=O)NC(C(=O)N[C@@H](Cc1c[nH]cn1)C(=O)N[C@@H](CC1CCCCC1)[C@@H](O)[C@@H](O)CC(C)C)S(=O)(=O)C(C)C (some centres unmarked) [IVA-NHCH(SO2 CH(CH3)2)CO--HIS--CAD, IVA-NHCH(SO2 CH(CH3)2)CO-HIS-CAD] |  | inhibition at 0.01 µM: 8.2%
2 | IVA-NHCH-(SCH(CH3)2)CO-HIS-CAD (Isomer B) [IVA-NHCH(SCH(CH3)2)CO--HIS--CAD (Isomer B)] | 5.7 nM | 
3 | IVA-NHCH(NHPh)CO-HIS-CAD [IVA-NHCH(NHPh)CO--HIS--CAD] | 13 nM | 
4 | CC[C@H](C)CNC(=O)C[C@H](O)[C@H](CC(C)C)NC(=O)[C@H](CC(C)C)NC(=O)C(NC(=O)CC(C)C)Sc1ccccc1 (single isomer, unassigned) [IVA-NHCH(SPh)CO--LEU--STA--MBA (Isomer A), IVA-NHCH(SPh)-CO-LEU-STA-MBA] | 140 nM | 
5 | IVA-NHCH-(OPh)CO-HIS-CAD [IVA-NHCH(OPh)CO--HIS--CAD] | 3000 nM | 
6 | CC(C)CC(=O)NC(Sc1ccccc1)C(=O)N[C@@H](Cc1c[nH]cn1)C(=O)N[C@@H](CC1CCCCC1)[C@@H](O)[C@@H](O)CC(C)C (some centres unmarked) [IVA-NHCH(SPh)CO--HIS--CAD, IVA-NHCH(SPh)CO-HIS-CAD] | 1.5 nM | 
7 | CC[C@H](C)CNC(=O)C[C@H](O)[C@H](CC(C)C)NC(=O)[C@H](CC(C)C)NC(=O)C(NC(=O)CC(C)C)Sc1ccccc1 (single isomer, unassigned) [IVA-NHCH(SPh)CO--LEU--STA--MBA (Mixture of diastereomers), IVA-NHCH(SPh)-CO-LEU-STA-MBA] | 190 nM | 
8 | CC[C@H](C)CNC(=O)C[C@H](O)[C@H](CC(C)C)NC(=O)[C@H](CC(C)C)NC(=O)C(NC(=O)OC(C)(C)C)SC(C)C (some centres unmarked) [BOC--NHCH(SCH(CH3)2)CO--LEU--STA--MBA, BOC-NHCH(SCH-(CH3)2)CO-LEU-STA-MBA] |  | inhibition at 1 µM (at 10^-6 molar concentration of test compound, read-out: In Vitro Activity, percent inhibition at 10^-6): 23%
9 | IVA-NHCH(N(CH3)Ph)CO-HIS-CAD [IVA-NHCH(N(CH3)Ph)CO--HIS--CAD] | 3.5 nM | 
10 | IVA-NHCH(NHPh)CO-LEU-STA-MBA [IVA-NHCH(NHPh)CO--LEU--STA--MBA] |  | In Vitro Activity, percent inhibition at 10^-6 (at 10^-6 molar concentration of test compound): 24%
11 | CC(C)CC(=O)NC(SC(C)C)C(=O)N[C@@H](Cc1c[nH]cn1)C(=O)N[C@@H](CC1CCCCC1)[C@@H](O)[C@@H](O)CC(C)C (single isomer, unassigned) [IVA-NHCH(SCH(CH3)2)CO--HIS--CAD (Isomer A), IVA-NHCH(SCH(CH3)2)CO-HIS-CAD (Isomer A)] |  | inhibition at 0.01 µM: 10.5%
